For this experiment, the target named is human PCSK9 (Homo sapiens, UniProt Q8NBP7). In words: PCSK9 ligand binding assay (TR-FRET): interference with binding of human PCSK9 to human LDLR. The conditions noted are these: for IC50: Human PCSK9 Alexa Fluor 647 / Human LDLR extracellular domain-Europium Kryptate; for Max % inhibition: efficacy (Amax), 100% = 1 uM unlabeled human PCSK9, 0% = DMSO. In a few lines:
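Read-out was TR-FRET ratio (665 nm over 615 nm, 330 nm excitation) between Alexa Fluor 647-human PCSK9 (16 nM added) and Europium Kryptate-human LDLR ectodomain (4 nM added). Compound and PCSK9 were mixed 30 min before LDLR, then incubated 2 h. Inhibition was normalised to DMSO and unlabelled-PCSK9 controls, giving IC50 and Amax.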
A general note: In TR-FRET formats the signal depends on donor and acceptor labels being close together.

Chain of human PCSK9 (Q8NBP7 153-692): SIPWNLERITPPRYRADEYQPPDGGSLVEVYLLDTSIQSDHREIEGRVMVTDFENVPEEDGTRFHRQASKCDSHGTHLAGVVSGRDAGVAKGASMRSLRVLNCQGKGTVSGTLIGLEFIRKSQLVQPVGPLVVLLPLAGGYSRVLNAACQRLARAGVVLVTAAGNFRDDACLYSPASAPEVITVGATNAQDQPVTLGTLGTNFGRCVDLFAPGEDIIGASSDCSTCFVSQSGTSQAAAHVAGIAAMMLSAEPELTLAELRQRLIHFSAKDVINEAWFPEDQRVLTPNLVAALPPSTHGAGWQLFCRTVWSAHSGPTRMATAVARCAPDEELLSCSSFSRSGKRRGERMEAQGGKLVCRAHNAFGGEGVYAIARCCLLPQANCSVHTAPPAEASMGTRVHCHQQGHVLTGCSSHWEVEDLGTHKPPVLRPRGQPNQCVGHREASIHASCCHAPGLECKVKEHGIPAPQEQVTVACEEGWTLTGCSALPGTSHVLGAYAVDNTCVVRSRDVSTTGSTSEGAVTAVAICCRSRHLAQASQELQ
Chain of human PCSK9 (Q8NBP7 31-152 partner limits assumed): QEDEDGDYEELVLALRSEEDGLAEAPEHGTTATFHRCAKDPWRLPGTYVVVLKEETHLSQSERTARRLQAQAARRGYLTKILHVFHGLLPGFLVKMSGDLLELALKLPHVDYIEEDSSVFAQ

As to `CCn1c(-c2ccc(Oc3cc(Cl)cc(F)c3CN3C(=O)C[C@@H](CC(F)(F)F)C(=O)N4CCC[C@@](Cc5ccc(Cl)cc5)(C4)NC(=O)[C@H](CO)NC(=O)[C@@H]3C)cc2)cnc1CN(C)C` [Compound 88, (3S, 7S, 10S, 13R)-6-(4-chloro-2-(4-(2-((dimethylamino)methyl)-1-ethyl-1H-imidazol-5-yl)phenoxy)-6-fluorobenzyl)-13-(4-chlorobenzyl)-10-(hydroxymethyl)-7-methyl-3-(2,2,2-trifluoroethyl)-1,6,9,12-tetraazabicyclo[11.3.1]heptadecane-2,5,8,11-tetraone], the IC50 (commonly the midpoint of a concentration-inhibition curve) was determined as 3.16 nM and the Max % inhibition was 99.0%.

For the compound `C[C@H]1C(=O)N[C@@H](CO)C(=O)N(C)[C@H](Cc2ccc(Cl)cc2)CNC(=O)[C@H](Cc2ccccc2)CC(=O)N1Cc1ccc(Cl)cc1Oc1ccc(-c2cnc(CN3CCCC3)n2C)cc1.Cl` [Compound 89, (2S, 5S, 8R, 12R)-12-benzyl-1-(4-chloro-2-(4-(1-methyl-2-(pyrrolidin-1-ylmethyl)-1H-imidazol-5-yl)phenoxy)benzyl)-8-(4-chlorobenzyl)-5-(hydroxymethyl)-2,7-dimethyl-1,4,7,10-tetraazacyclotetradecane-3,6,11,14-tetraone], the IC50 is 1.51 nM and the Max % inhibition was 104.5%.

`C[C@H]1C(=O)N[C@@H](CO)C(=O)N[C@@]2(Cc3ccc(Cl)cc3)CCCN(C2)C(=O)[C@H]([C@@H]2CCc3ccccc32)CC(=O)N1Cc1ccc(C(F)(F)F)cc1Oc1ccc(-c2cnc(CN(C)C)n2C)cc1` [Compound 90]: the IC50 was found to be 1.71 nM and the Max % inhibition turned out to be 99.2%.

On to `C[C@H]1C(=O)N[C@@H](CO)C(=O)N(C)[C@H](Cc2ccc(Cl)cc2)CN(C)C(=O)[C@H]([C@H]2CCc3ccccc32)CC(=O)N1Cc1ccc(Cl)cc1Oc1ccc(-c2cnc(CN(C)C)n2C)cc1.Cl` [Compound 91, (2S, 5S, 8R, 12S)-1-(4-chloro-2-(4-(2-((dimethylamino)methyl)-1-methyl-1H-imidazol-5-yl)phenoxy)benzyl)-8-(4-chlorobenzyl)-12-((R)-2,3-dihydro-1H-inden-1-yl)-5-(hydroxymethyl)-2,7,10-trimethyl-1,4,7,10-tetraazacyclotetradecane-3,6,11,14-tetraone], for which the IC50 came out at 1.83 nM and the Max % inhibition came to 104.8%.

With `COC[C@@H]1NC(=O)[C@H](C)N(Cc2ccc(Cl)cc2Oc2ccc(-c3cnc(CN4CCCC4)n3C)cc2)C(=O)C[C@@H](Cc2ccccc2)C(=O)NC[C@@H](Cc2ccc(Cl)cc2)N(C)C1=O.Cl` [Compound 92, (2S, 5S, 8R, 12R)-12-benzyl-1-(4-chloro-2-(4-(1-methyl-2-(pyrrolidin-1-ylmethyl)-1H-imidazol-5-yl)phenoxy)benzyl)-8-(4-chlorobenzyl)-5-(methoxymethyl)-2,7-dimethyl-1,4,7,10-tetraazacyclotetradecane-3,6,11,14-tetraone], the IC50 came out at 2.37 nM and the Max % inhibition came out at 104.1%.

On to `C[C@H]1C[C@H]([C@@H]2CC(=O)N(Cc3ccc(Cl)cc3Oc3ccc(-c4cnc(CN5CCCC5)n4C)cc3)[C@@H](C)C(=O)N[C@@H](CO)C(=O)N(C)[C@H](Cc3ccc(Cl)cc3)CN(C)C2=O)c2ccccc21.Cl` [Compound 93, (2S, 5S, 8R, 12S)-1-(4-chloro-2-(4-(1-methyl-2-(pyrrolidin-1-ylmethyl)-1H-imidazol-5-yl)phenoxy)benzyl)-8-(4-chlorobenzyl)-5-(hydroxymethyl)-2,7,10-trimethyl-12-((1R, 3S)-3-methyl-2,3-dihydro-1H-inden-1-yl)-1,4,7,10-tetraazacyclotetradecane-3,6,11,14-tetraone], for which the IC50 came out at 1.4 nM and the Max % inhibition turned out to be 103.0%.

Regarding `COC[C@@H]1NC(=O)[C@H](C)N(Cc2ccc(Cl)cc2Oc2ccc(-c3cnc(CN(C)C)n3C)nc2)C(=O)C[C@@H](Cc2ccccn2)C(=O)N2CCC[C@@](Cc3ccc(Cl)cc3)(C2)N(C)C1=O` [Compound 94, (3R,7S,10S,13R)-6-(4-Chloro-2-((6-(2-((dimethylamino)methyl)-1-methyl-1H-imidazol-5-yl)pyridin-3-yl)oxy)benzyl)-13-(4-chlorobenzyl)-10-(methoxymethyl)-7,12-dimethyl-3-(pyridin-2-ylmethyl)-1,6,9,12-tetraazabicyclo[11.3.1]heptadecane-2,5,8,11-tetraone], the IC50 was determined as 0.978 nM and the Max % inhibition came to 107.7%.

On to `COC[C@@H]1NC(=O)[C@H](C)N(Cc2ccc(Cl)cc2Oc2ccc(-c3cnc(CN(C)C)n3C)cc2)C(=O)C[C@@H]([C@@H]2CCc3ccccc32)C(=O)N2CCC[C@@](Cc3ccc(Cl)cc3)(C2)NC1=O.Cl` [Compound 95, (3S, 7S, 10S, 13R)-6-(4-chloro-2-(4-(2-((dimethylamino)methyl)-1-methyl-1H-imidazol-5-yl)phenoxy)benzyl)-13-(4-chlorobenzyl)-3-((S)-2,3-dihydro-1H-inden-1-yl)-10-(methoxymethyl)-7-methyl-1,6,9,12-tetraazabicyclo[11.3.1]heptadecane-2,5,8,11-tetraone], for which the IC50 came out at 1.88 nM and the Max % inhibition turned out to be 102.5%.

Turning to `C[C@@H](O)[C@@H]1NC(=O)[C@H](C)N(Cc2ccc(Cl)cc2Oc2ccc(-c3cnc(CN(C)C)n3C)cc2)C(=O)C[C@@H](CC(F)(F)F)C(=O)N2CCC[C@@](Cc3ccc(Cl)cc3)(C2)NC1=O` [Compound 97, (3S, 7S, 10S, 13R)-6-(4-chloro-2-(4-(2-((dimethylamino)methyl)-1-methyl-1H-imidazol-5-yl)phenoxy)benzyl)-13-(4-chlorobenzyl)-10-((R)-1-hydroxyethyl)-7-methyl-3-(2,2,2-trifluoroethyl)-1,6,9,12-tetraazabicyclo[11.3.1]heptadecane-2,5,8,1-tetraone], the IC50 was determined as 2.08 nM and the Max % inhibition is reported as 91.2%.

Take `C[C@H]1C(=O)N[C@@H](CO)C(=O)N[C@@]2(Cc3ccc(Cl)cc3)CCCN(C2)C(=O)[C@H](Cc2ccccc2)CC(=O)N1Cc1c(Cl)cc(Cl)cc1Oc1ccc(-c2cnc(CN(C)C)n2C)cc1` [Compound 98, (3R, 7S, 10S, 13R)-3-benzyl-13-(4-chlorobenzyl)-6-(2,4-dichloro-6-(4-(2-((dimethylamino)methyl)-1-methyl-1H-imidazol-5-yl)phenoxy)benzyl)-10-(hydroxymethyl)-7-methyl-1,6,9,12-tetraazabicyclo+11.3.111-tetraone]: the IC50 stood at 2.41 nM and the Max % inhibition came out at 108.6%.

On to `C[C@@H]1CC(=O)N(Cc2c(F)cc(Cl)cc2Oc2ccc(-c3cnc(CN(C)C)n3C)cc2)[C@@H](C)C(=O)N[C@@H](CO)C(=O)N(C)[C@@]2(Cc3ccc(Cl)cc3)CCCN(C2)C1=O` [Compound 99, (3R, 7S, 10S, 13R)-6-(4-chloro-2-(4-(2-((dimethylamino)methyl)-1-methyl-1H-imidazol-5-yl)phenoxy)-6-fluorobenzyl)-13-(4-chlorobenzyl)-10-(hydroxymethyl)-3,7,12-trimethyl-1,6,9,12-tetraazabicyclo+11.3.1+heptadecane-2,5,8,11-tetraone], for which the IC50 came to 2.86 nM and the Max % inhibition is on record as 116.6%.

As for `COC[C@@H]1NC(=O)[C@H](C)N(Cc2ccc(Cl)cc2Oc2ccc(-c3cnc(CN4CCCC4)n3C)cc2)C(=O)C[C@@H]([C@H]2CCc3ccccc32)C(=O)N(C)C[C@@H](Cc2ccc(Cl)cc2)N(C)C1=O.Cl` [Compound 101, (2S, 5S, 8R, 12S)-1-(4-chloro-2-(4-(1-methyl-2-(pyrrolidin-1-ylmethyl)-1H-imidazol-5-yl)phenoxy)benzyl)-8-(4-chlorobenzyl)-12-((R)-2,3-dihydro-1H-inden-1-yl)-5-(methoxymethyl)-2,7,10-trimethyl-1,4,7,10-tetraazacyclotetradecane-3,6,11,14-tetraone], the half-maximal inhibitory concentration (IC50) came to 1.94 nM and the Max % inhibition came to 98.3%.

Consider `C[C@H]1C(=O)N[C@@H](CO)C(=O)N(C)[C@H](Cc2ccc(Cl)cc2)CN(C)C(=O)[C@H]([C@H]2COc3ccccc32)CC(=O)N1Cc1ccc(Cl)cc1Oc1ccc(-c2cnc(CN3CCCC3)n2C)cc1.Cl` [Compound 102, (2S, 5S, 8R, 12S)-1-(4-chloro-2-(4-(1-methyl-2-(pyrrolidin-1-ylmethyl)-1H-imidazol-5-yl)phenoxy)benzyl)-8-(4-chlorobenzyl)-12-((R)-2,3-dihydrobenzofuran-3-yl)-5-(hydroxymethyl)-2,7,10-trimethyl-1,4,7,10-tetraazacyclotetradecane-3,6,11,14-tetraone], for which the IC50 was determined as 1.38 nM and the Max % inhibition was 100.8%.

As to `COc1cccc2c1OC[C@@H]2[C@@H]1CC(=O)N(Cc2ccc(Cl)cc2Oc2ccc(-c3cnc(CN4CCCC4)n3C)cc2)[C@@H](C)C(=O)N[C@@H](CO)C(=O)N(C)[C@H](Cc2ccc(Cl)cc2)CN(C)C1=O.Cl` [Compound 103, (2S, 5S, 8R, 12S)-1-(4-chloro-2-(4-(1-methyl-2-(pyrrolidin-1-ylmethyl)-1H-imidazol-5-yl)phenoxy)benzyl)-8-(4-chlorobenzyl)-5-(hydroxymethyl)-12-((R)-7-methoxy-2,3-dihydrobenzofuran-3-yl)-2,7,10-trimethyl-1,4,7,10-tetraazacyclotetradecane-3,6,11,14-tetraone], the IC50 was 2.08 nM and the Max % inhibition amounted to 98.4%.

On to `CCOCCOCCOCc1ncc(-c2ccc(Oc3cc(Cl)ccc3CN3C(=O)N[C@@H](Cc4ccccc4)C(=O)N4CCC[C@@](Cc5ccc(Cl)cc5)(C4)NC(=O)[C@H](CO)NC(=O)[C@@H]3C)cc2)n1C.Cl` [Compound 104], for which the IC50 is 1.84 nM and the Max % inhibition was 69.1%.

The values above are taken from US11813306B2, “Cyclic tetramer compounds as proprotein convertase subtilisin/kexin type 9 (PCSK9) inhibitors for the treatment of metabolic disorders” (NOVARTIS AG, priority 2018, dated 2023).
